From patent US20100022559A1, “BISOXIMES AS FUNGICIDES” (BAYER CROPSCIENCE AG, priority 2006, published 2010)

Assay: logP determination by HPLC on a reversed-phase column (C 18), EEC Directive 79/831 Annex V.A8
Type: physicochemical
Conditions: HCO2H; HPLC reversed-phase column (C 18), 43° C.; read-out: logP (HCO2H)
Protocol: The stated logP values were determined in accordance with EEC Directive 79/831 Annex V.A8 by HPLC (high performance liquid chromatography) on a reversed-phase column (C 18). Temperature: 43° C.

Compound	chromatographic logP
C/C(=N\OC[Si](C)(C)CO/N=C(\C)c1cccc(C)n1)c1cccc(C)n1 [(1E,1E′)-1-(6-methylpyridin-2-yl)ethanone O,O′-[(dimethylsilanediyl)bis(methylene)]oxime]	4.5

Same assay, conditions: [b] LC-MS, acidic range, pH 2.7, 0.1% aqueous formic acid and acetonitrile

Compound	logP
C/C(=N\OCC(C)CON)c1cccc(-c2cccc(C)n2)n1 (racemic) [XII-5]	1.35^[b]

Same assay, conditions: [c] LC-MS, neutral range, pH 7.8, 0.001 molar aqueous ammonium bicarbonate solution and acetonitrile

Compound	logP
C/C(=N\OCC(C)CON)c1cccc(-c2cccc(C)n2)n1 (racemic) [XII-5]	3.36^[c]

Same assay, conditions: method marked [a] in Table 1

Compound	logP
Cc1cccnc1C(=NOCC(C)CON=C(c1ccccc1)c1ncccc1C)c1ccccc1 (stereo not drawn) [compound 658]	4.54^[a]
Cc1cccc(C(=NOCC(C)CON=C(c2ccccc2)c2cccc(C)n2)c2ccccc2)n1 (single isomer, unassigned) [compound 661]	4.10^[a] (isomer A)
Cc1cccc(C(=NOCCCON=C(c2ccccc2)c2cccc(C)n2)c2ccccc2)n1 (mixture of isomers) [compound 656]	3.68^[a]

Same assay, conditions: method marked [b] in Table 1

Compound	logP
Cc1cc(C)cc(/C(N)=N/OCc2ccccc2CO/N=C(\N)c2cc(C)cc(C)c2)c1 [compound 710]	3.68^[b]
C=C(CON=C(C)c1cccc(-c2ccccc2)n1)CON=C(C)c1cccc(-c2ccccc2)n1 [compound 567]	7.26
CC(=NOC(C)CC(C)ON=C(C)c1cc(C)cc(C)n1)c1cc(C)cc(C)n1 (stereo not drawn) [Compound 557]	2.39^[b]
CCCC(=NOCC1(CON=C(CCC)c2cccc(C)n2)CC(c2ccc(Cl)cc2)=NO1)c1cccc(C)n1 (stereo not drawn) [compound 622]	6.58^[b]
N/C(=N\OCc1cccc(CO/N=C(\N)c2ncc(F)cc2F)c1)c1ncc(F)cc1F [compound 714]	2.96^[b]
Cc1nc(/C(N)=N/OCc2ccccc2CO/N=C(\N)c2nc(C)c3c(n2)CCCC3)nc2c1CCCC2 [compound 707]	3.25^[b]
CC(=NOC(C)C(C)C(C)ON=C(C)c1cccc(C)n1)c1cccc(C)n1 (mixture of isomers) [Compound 743]	4.90^[b]
CCCC1=NOC(CON=C(CC)c2cccc(C)n2)(CON=C(CC)c2cccc(C)n2)C1 (stereo not drawn) [compound 608]	4.72^[b]
CC1=NOC(CON=C(C)c2ccc(C)c(C)n2)(CON=C(C)c2ccc(C)c(C)n2)C1 (stereo not drawn) [compound 626]	2.07^[b]
CC(C)=CC1=NOC(CON=C(C)c2cc(C)cc(C)n2)(CON=C(C)c2cc(C)cc(C)n2)C1 (stereo not drawn) [compound 647]	2.48^[b]
CC(=NOCC(CON=C(C)c1cc(C)cc(C)n1)Cc1ccccc1)c1cc(C)cc(C)n1 (stereo not drawn) [Compound 582]	3.62^[b]
Cc1cc(C)nc(/C(N)=N/OCc2ccccc2CO/N=C(\N)c2nc(C)cc(C)n2)n1 [compound 700]	2.23^[b]
N/C(=N\OCc1ccc(CO/N=C(\N)c2nc(C3CC3)cc(C3CC3)n2)cc1)c1nc(C2CC2)cc(C2CC2)n1 [compound 720]	3.76^[b]

Same assay, conditions: method marked [c] in Table 1

Compound	logP
C=C(CON=C(C)c1cccc(-c2ccccc2)n1)CON=C(C)c1cccc(-c2ccccc2)n1 [compound 567]	7.27
CC(=NOC(C)CC(C)ON=C(C)c1cc(C)cc(C)n1)c1cc(C)cc(C)n1 (stereo not drawn) [Compound 557]	6.63^[c]
CC(=NOCC(CON=C(C)c1cc(C)cc(C)n1)Cc1ccccc1)c1cc(C)cc(C)n1 (stereo not drawn) [Compound 582]	6.97^[c]

Same assay, conditions: method marker [a] (footnote not shown); isomer A / isomer B / isomer mixture as noted in the cell

Compound	logP
CC(=NOCC(C)CON=C(C)c1cccc(C(C)C)n1)c1cccc(C(C)C)n1 (stereo not drawn) [Compound 229]	7.36^[a]
CC(=NOCC(C)CON=C(C)c1sc(C)nc1C)c1sc(C)nc1C (mixture of isomers) [compound 121]	4.02^[a]
Cc1cccc(C(=NOCC(C)CON=C(c2cccc(C)n2)C(C)C)C(C)C)n1 (stereo not drawn) [compound 138]	6.22^a]
CC(=NOCC1(CON=C(C)c2cccc(C)n2)CO1)c1cccc(C)n1 (stereo not drawn) [compound 220]	2.24^[a]
Cc1cccnc1C(CC(C)C)=NOCCCON=C(CC(C)C)c1ncccc1C [compound 93]	5.96^[a]
Cc1cccc(C(CC(C)C)=NOCCCON=C(CC(C)C)c2cccc(C)n2)n1 (single isomer, unassigned) [Compound 115]	7.08^[a] (isomer B)
CC(=NOCCON=C(C)c1cccc(C)n1)c1cccc(C)n1 (mixture of isomers) [Compound 13]	2.22^[a]

Same assay, conditions: method marker [b]; isomer A / isomer B / isomer mixture as noted in the cell

Compound	logP
C=C(CON=C(C)c1ccc(Br)nc1)CON=C(C)c1cccc(C)n1 [compound 208]	4.08^[b]
C=C(CON=C(C)c1cccc(C)n1)CON=C(C)c1cccc(C(C)=O)n1 [Compound 117]	4.43^[b]
C=C(CON=C(C)c1ccc(Cl)nc1)CON=C(C)c1ccc(Cl)nc1 [Compound 57]	4.38^[b]
C=C(CON=C(C)c1cccc(C)n1)CON=C(C)c1ncccc1Cl (single isomer, unassigned) [compound 139]	3.39^[b] (isomer B)
C=C(CON=C(C)c1cccc(C)n1)CON=C(N)c1cc(C)cc(C)n1 [Compound 189]	2.92^[b]
CC(=NOCC(C)(C)CON=C(C)c1cccc(C)n1)c1cccc(C)n1 (mixture of isomers) [Compound 250]	4.74^[b]
CC(=NOCC(C)CON=C(C)c1nc2ccccc2s1)c1nc2ccccc2s1 (stereo not drawn) [Compound 213]	6.71^[b]
C=C(CON=C(C)c1cccc(C)n1)CON=C(N)c1nc(C)c2c(n1)CCCC2 [Compound 182]	2.55^[b]
C=C(CON=C(C)c1cccc(C)n1)CON=C(C)c1nc(C)c(C)s1 [Compound 18]	4.41^[b]
C=C(CON=C(C)c1cccc(C)n1)CON=C(N)c1cccc(C)n1 [Compound 23]	2.75^[b]
Cc1nc(/C(N)=N/OCCCCO/N=C(\N)c2nc(C)c3c(n2)CCCC3)nc2c1CCCC2 [compound 36]	2.58^[b]
N/C(=N\OCO/N=C(\N)c1nc(C2CC2)cc(C2CC2)n1)c1nc(C2CC2)cc(C2CC2)n1 [compound 42]	2.92^[b]
C=C(CON=C(C)c1ccc(C(F)(F)F)cn1)CON=C(C)c1ccc(C(F)(F)F)cn1 [Compound 61]	6.18^[b]

Same assay, conditions: value marked [a]

Compound	logP
CC(=NOC(=O)NCCCC(C)CNC(=O)ON=C(C)c1cccc(C)n1)c1cccc(C)n1 (stereo not drawn) [compound 863]	2.46^[a]
C=C(CON=C(OCC)c1cccc(C)n1)CON=C(OCC)c1ccc(C)c(C)n1 [Compound 843]	2.25^[a]

Same assay, conditions: value marked [b]

Compound	logP
COc1ccc(C(C)=NOCCCCCCON=C(C)c2cccc(C)n2)cc1OC [compound 392]	4.91^[b]
COCc1cccc(C(C)=NOCC(C)CON=C(C)c2cccc(COC)n2)n1 (stereo not drawn) [Compound 290]	4.92^[b]
CC(=NOCC(C)(C)CON=C(C)c1cccc(C)n1)c1cccnc1 [compound 418]	2.80^[b]
CC(=NOCCCCCCON=C(c1ccccc1)c1ncccc1C)c1cccc(C)n1 [compound 341]	4.98^b]
CC(=NOCCC(C)ON=C(C)c1ccc(C)c(C)n1)c1ccc(C)c(C)n1 (stereo not drawn) [Compound 519]	2.75^[b]
CCC(=NOCC(C)CON=C(C)c1cccc(C)n1)c1ncccc1C (stereo not drawn) [compound 425]	3.99^[b]
C=CCCC(=NOCCCCCCON=C(C)c1cccc(C)n1)c1ncccc1C (single isomer, unassigned) [compound 524]	5.65^[b] (isomer B)
CC(=NOCC1(CON=C(C)c2ccc(C)c(C)n2)CC1)c1ccc(C)c(C)n1 [Compound 315]	2.84^[b]
CC(=NOC/C=C/CON=C(C)c1nc(C)c(C)s1)c1nc(C)c(C)s1 (single isomer, unassigned) [compound 767]	4.92^[b] (isomer B)
C=C(CON=C(C)c1cccc(C)n1)CON=C(C)c1ccccc1Cl [compound 402]	4.74^[b]
CC(=NOCCCCON=C(C)c1cncc(C)n1)c1cccc(C)n1 [compound 453]	1.88^[b]
CC(=NOCC(C)CON=C(CC(C)C)c1ncccc1C)c1cccc(C)n1 (stereo not drawn) [compound 422]	4.51^[b]
CC(=NOCC(CON=C(C)c1cccc(C)n1)c1ccccc1)c1cccc(C)n1 (stereo not drawn) [Compound 264]	4.63^[b]
CC(=NOCC(C)(C)CON=C(C)c1nccc(C)n1)c1cccc(C)n1 [compound 511]	3.02^[b]
COc1cc(C)nc(C(C)=NOCC(C)CON=C(C)c2cccc(C)n2)c1 (stereo not drawn) [Compound 501]	3.37^[b]
CC(=NOCC(C)CON=C(C)c1cc(CO)cc(C)n1)c1cc(CO)cc(C)n1 (stereo not drawn) [compound 868]	1.31^[b]
C=C(CON=C(C)c1cccc(C)n1)CON=C(C)c1cc2ccccc2o1 [compound 404]	4.57^[b]
CC(=NOCCCCON=C(C)c1cccc(C)n1)c1cccc(C(F)(F)F)c1 [Compound 375]	5.54^[b]
CC(=NOCC(C)CON=C(C)c1cc(C)c(C)nn1)c1cc(C)c(C)nn1 (stereo not drawn) [compound 309]	2.58^[b]
CC(=NOCC(CON=C(C)c1cccc(C)n1)C(C)(C)C)c1cccc(C)n1 (stereo not drawn) [Compound 269]	5.51^[b]
CC(=NOCC(C)CON=C(C)c1cccnc1C)c1cccc(C)n1 (stereo not drawn) [compound 500]	1.85^[b]
CC(=NOCC(C)CON=C(C)c1cccc(C)n1)c1cccnc1 (stereo not drawn) [compound 438]	2.34^[b]
CC(=NOCCCCON=C(C)c1nc(C)c(C)s1)c1cccc(C)n1 [compound 377]	4.62^[b]
CC(=NOCC(C)(C)CON=C(c1ccccc1)c1ncccc1C)c1cccc(C)n1 [compound 365]	4.51^[b]
CC(=NOCCCCON=C(c1cccc(C)n1)C(C)C)c1cccc(C)n1 (single isomer, unassigned) [compound 525]	3.65^[b] (isomer A)
CC(=NOCC1(CON=C(C)c2nc(C)ccc2C)COC(=O)N1)c1nc(C)ccc1C (stereo not drawn) [compound 859]	1.70^[b]
CC(=NOCC1(CON=C(C)c2cc(C)cc(C)n2)COC(=O)N1)c1cc(C)cc(C)n1 (stereo not drawn) [compound 858]	1.43^[b]
CC(=NOCCCCON=C(C)c1nccc(C)n1)c1cccc(C)n1 [compound 508]	2.37^[b]

Same assay, conditions: value marked [c]

Compound	logP
CC(=NOC[Si](C)(C)CON=C(C)c1ccc(C)c(C)n1)c1ccc(C)c(C)n1 [Compound 870]	7.05^[c]
CC(=NOCCC(C)ON=C(C)c1ccc(C)c(C)n1)c1ccc(C)c(C)n1 (stereo not drawn) [Compound 519]	6.27^[c]
CC(=NOCC1(CON=C(C)c2ccc(C)c(C)n2)CC1)c1ccc(C)c(C)n1 [Compound 315]	6.08^[c]
CC(=NOCC(C)CON=C(C)c1cc(CO)cc(C)n1)c1cc(CO)cc(C)n1 (stereo not drawn) [compound 868]	2.67^[c]
CC(=NOCC1(CON=C(C)c2nc(C)ccc2C)COC(=O)N1)c1nc(C)ccc1C (stereo not drawn) [compound 859]	2.81^[c]
CC(=NOCC1(CON=C(C)c2cc(C)cc(C)n2)COC(=O)N1)c1cc(C)cc(C)n1 (stereo not drawn) [compound 858]	3,55^[c]
